# Laboratory results reported in patent US20240398853A1, “MULTIVALENT POLYCATION INHIBITION OF POLYANIONS IN BLOOD” (The Regents of the University of Michigan, priority 2021, published 2024).
# What was measured:
# tinzaparin (LMWH) = test: Heparin reversal activity by aPTT in heparinized plasma; format: biochemical, human; conditions: tinzaparin 1 U/mL
# Description: (§1) Stock MPI, UHRA or protamine sulfate solutions were prepared in 20 mM HEPES buffer (pH 7.4 and 150 mM NaCl). Unfractionated heparin (Fresenius Kabi, Canada) or tinzaparin (LEO Pharma, Canada), 4 U/mL and 1 U/mL final concentrations, respectively, were incubated with sodium citrate anticoagulated pooled normal plasma (Affinity Biologicals, Canada) to prepare heparinized plasma, and were used to study the neutralization activity by various MPI and UHRA constructs. The neutralization activity of MPI, UHRA and protamine sulfate on the coagulation cascade was examined by mixing 20 μL of MPI or UHRA or protamine solution with 180 μL of heparin derivative incubated plasma ( 1/10 v/v). The final concentration of MPI, UHRA and protamine in plasma ranged from 0.025 mg/mL to 0.25 mg/mL. 200 μL of aPTT reagent (Dade®Actin®FS Activated PTT, Siemens/Dade-Behring) was then added to the neutralization reagent-plasma sample and 100 μL of this resulting mixture was transferred to cuvette-strips and incubated at 37° C. for 3 minutes. The clotting time was measured on a STart® 4 coagulometer (Diagnostica Stago, France) and began when 50 μL of 25 mM CaCl2) was added into each cuvette. Saline added to plasma with and without heparin-derivatives was used as a control for the experiments. The percentage of neutralization was calculated from the difference in the clotting times observed for MPI/UHRA/protamine versus control saline and heparinized plasma. All experiments were performed with pooled plasma of 20 donors in triplicates and the average values (mean±SD) are reported.
# [1] = tested on: Unfractionated heparin (UFH); test: as above; format: biochemical, human; conditions: UFH 4 U/mL, dose range 0-250 μg/mL
# Description: as §1
# human plasma clotting = test: Plasma clot formation by turbidity analysis in a TF-triggered system (no polyP); format: biochemical
# Description: Microplate turbidimetric clotting assays were performed with platelet-poor plasma (PPP) obtained from three donors. MPI solutions were prepared in 20 mM HEPES (pH 7.4, 150 mM NaCl) buffer. Clotting was initiated in 90 μL of 30% diluted PPP spiked with MPI (dilution 1:10) by adding 5 μL of recombinant tissue factor (TF; Innovin (1:10,000; […])) and 5 μL of CaCl2) (20 mM). Clotting was evaluated by monitoring changes in turbidity (A405 nm) every 30 seconds with the Spectramax microplate reader for 2 hours at 37° C. Clotting parameters including lag time were calculated and considered as the time point when an exponential increase in absorbance was first observed.
# mice = mice (Shenoi); cited from earlier work
# [2] = free ligand, value marked with a reference superscript; cited from earlier work
# [3] = 31P NMR titration of polyP with MPI or CBG; format: binding; conditions: HEPES buffer, 150 mM NaCl, 298 K
# Description: NMR spectra for MPI and polyP binding interaction studies were acquired on a Bruker 500 MHz instrument (Bruker Biospin, Milton, ON), operating at a ^1H frequency of 499.4 MHz. ^31P NMR spectra were collected at 298 K. The NMR sample was prepared to yield 0.5 mM of polyphosphate in HEPES buffer with 150 mM NaCl and 10% D2O (by volume) for a total sample volume of 600 μL. All polyphosphate concentrations are provided in terms of the concentration of phosphate monomer. For the binding study, polyphosphate was first prepared with a known concentration of internal standard of trimethylphosphate. MPI was titrated in, and the total volume was increased by 1.5 μL of the 600 μL total per addition.
# While ITC experiments indicate the behavior of the amine functionalities on the CBGs during the MPI-polyP binding event, the effect of the MPI on the polyP phosphate backbone have previously been unknown. To determine the interaction between the MPI and polyP backbone, and how the interaction effects the electronic environment of the phosphorus nuclei, ^31P NMR titration experiments were performed. […] While it is not possible to quantify the number of bound phosphate units with MPI or CBG, it is possible to visualize the change in electronic environment of the phosphorus nuclei and extrapolate the binding behavior between MPI and polyP.
# [4] = Isothermal titration calorimetry, binding to polyP; conditions: for Kd: pH 7.4, 25° C.
# Description: The interaction of MPI and polyP was carried out at 25° C. using a MicroCal iTC200 calorimeter (MicroCal, Northampton, USA). Samples were prepared by making stock solutions of at least 100× the desired concentration at high volume and filtered using 0.2 µm filters (Millex, Merck Millipore Ltd). The pH of each solution was then measured to ensure that they were between 7.35 and 7.40. Prior to titration, stock solutions were diluted with the same filtered buffer and degassed. Titrations consisted of 25 consecutive injections of 1.5 μL volume and 5 sec duration each, with a 3 min interval between injections with only the first injection between 0.2 μL volume, not used as part of the fit. Heat of dilution was measured by injecting MPI solution into buffer alone and was subtracted from the experimental curves prior to data analysis. The resulting data were fit into a single set of identical sites model using the MicroCal ORIGIN software supplied with the instrument.
Compound,LMWH neutralization (tinzaparin (LMWH)),UFH neutralization in heparinized plasma [1],anticoagulant (overdose) behavior at higher doses [1],"plasma clot time (lag time) compared to buffer control (human plasma clotting; MPI and PS 200 μg/mL, UHRA 75 μg/mL)",increase in clot time compared to buffer control (human plasma clotting; pooled plasma),lethal dose (mice),"log K, H2L + H ⇌ H3L [2]","log K, H3L + H ⇌ H4L [2]","log K, HL + H ⇌ H2L [2]","log K, L + H ⇌ HL [2]",binding behaviour towards P45 in 31P NMR titration [3],"binding affinity to LC polyP (range in words) ([4]; ITC, FIG. 7)","Kd ([4]; P45, HEPES, 10 mM NaCl)","Kd ([4]; P700, HEPES buffer)"
protamine sulfate,almost no neutralization activity on LMWH,exhibits heparin neutralization at lower doses,clear anticoagulant behavior at higher doses,performed significantly worse than MPI candidates,~3 fold,30 mg/kg,–,–,–,–,–,–,–,–
CN(C)CCN(CCN(C)C)CCN(C)C [Me6-TREN],–,–,–,–,–,–,7.44,<1.0,8.68,9.50,–,–,–,–
"CN(C)CCN(C)CCN(C)C [CBG I, N,NN′,N″,N″-pentamethyldiethylenetriamine]",–,–,–,–,–,–,2.09 ± 0.02,–,8.41 ± 0.02,9.22 ± 0.02,weak interaction,millimolar range,7 mM,9 mM
